The first experiment deals with SARS-CoV-2 strain USA-WA1/2020. The experiment is described as follows: microbe, parasite or virus in culture. Type of experiment: cell-based. As to conditions: Severe acute respiratory syndrome coronavirus 2, HeLa-ACE2, 24 h, HeLa-ACE2 cells, SARS-CoV-2 infection, 24 h; class symbols; read-out: EC50, uM (Hela).
Broadly, the EC50 is the concentration needed to bring the measured effect to its halfway point. As to `CC(C)C[C@@H](OC(F)F)C(=O)N1CC2(CC2)C[C@H]1C(=O)N[C@@H](C[C@@H]1CCNC1=O)C(=O)COC(F)(F)F` [Compound 333, (S)-5-((R)-2-(difluoromethoxy)-4-methylpentanoyl)-N—((S)-3-oxo-1-((S)-2-oxopyrrolidin-3-yl)-4-(trifluoromethoxy)butan-2-yl)-5-azaspiro[2.4]heptane-6-carboxamide], the EC50 was < 0.05 µM.

Regarding `CC(C)C[C@@H](OCC(C)(C)O)C(=O)N1CC2(CC2)C[C@H]1C(=O)N[C@@H](C[C@@H]1CCNC1=O)C(=O)COC(F)(F)F` [Compound 334, (S)-5-((R)-2-(2-hydroxy-2-methylpropoxy)-4-methylpentanoyl)-N-((S)-3-oxo-1-((S)-2-oxopyrrolidin-3-yl)-4-(trifluoromethoxy)butan-2-yl)-5-azaspiro[2.4]heptane-6-carboxamide], the EC50 fell in the range of 0.05 to 0.2 µM.

On to `CC[C@@H](OC(F)(F)F)C(=O)N1C[C@H]2[C@@H]([C@H]1C(=O)N[C@@H](C[C@@H]1CCNC1=O)C(=O)COC(F)(F)F)C2(C)C` [Compound 335, (1R,2S,5S)-6,6-dimethyl-N-((S)-3-oxo-1-((S)-2-oxopyrrolidin-3-yl)-4-(trifluoromethoxy)butan-2-yl)-3-((R)-2-(trifluoromethoxy)butanoyl)-3-azabicyclo[3.1.0]-hexane-2-carboxamide], for which the EC50 was < 0.05 µM.

On to `CC[C@@H](OC)C(=O)N1C[C@H]2[C@@H]([C@H]1C(=O)N[C@@H](C[C@@H]1CCNC1=O)C(=O)COC(F)(F)F)C2(C)C` [Compound 336, (1R,2S,5S)-3-((R)-2-methoxybutanoyl)-6,6-dimethyl-N—((S)-3-oxo-1-((S)-2-oxopyrrolidin-3-yl)-4-(trifluoromethoxy)butan-2-yl)-3-azabicyclo[3.1.0]hexane-2-carboxamide], for which the EC50 lay within 0.05 to 0.2 µM.

Regarding `CC[C@@H](OC)C(=O)N[C@@H](CC(C)C)C(=O)N[C@@H](C[C@@H]1CCNC1=O)C(=O)COC(F)(F)F` [Compound 337, (S)-2-((R)-2-methoxybutanamido)-4-methyl-N-((S)-3-oxo-1-((S)-2-oxopyrrolidin-3-yl)-4-(trifluoromethoxy)butan-2-yl)pentanamide], the EC50 was 0.05 to 0.2 µM.

On to `COC(CC(C)C)C(=O)N1CC2(CC2)C[C@H]1C(=O)N[C@@H](C[C@@H]1CCNC1=O)C(=O)COC(F)(F)F` (stereo partly drawn) [Compound 338, (6S)-5-(2-methoxy-4-methylpentanoyl)-N-((S)-3-oxo-1-((S)-2-oxopyrrolidin-3-yl)-4-(trifluoromethoxy)butan-2-yl)-5-azaspiro[2.4]heptane-6-carboxamide], for which the EC50 was < 0.05 µM.

On to `CO[C@@H](CC(C)C)C(=O)N1CC2(CC2)C[C@H]1C(=O)N[C@@H](C[C@@H]1CCNC1=O)C(=O)COC(F)(F)F` [Compound 339, (S)-5-((S)-2-methoxy-4-methylpentanoyl)-N-((S)-3-oxo-1-((S)-2-oxopyrrolidin-3-yl)-4-(trifluoromethoxy)butan-2-yl)-5-azaspiro[2.4]heptane-6-carboxamide], for which the EC50 was in the range of 0.05 to 0.2 µM.

Take `COC(OC)C(=O)N1CC2(CC2)C[C@H]1C(=O)N[C@@H](C[C@@H]1CCNC1=O)C(=O)COC(F)(F)F` [Compound 340, (S)-5-(2,2-dimethoxyacetyl)-N—((S)-3-oxo-1-((S)-2-oxopyrrolidin-3-yl)-4-(trifluoromethoxy)butan-2-yl)-5-azaspiro[2.4]heptane-6-carboxamide]: the EC50 lay in the range of 0.2 to 0.5 µM.

Take `CC(C)C[C@H](NC(=O)[C@H](O)C(C)(C)C)C(=O)N[C@@H](C[C@@H]1CCNC1=O)C(=O)COC(F)(F)F` [Compound 341, (S)-2-((R)-2-hydroxy-3,3-dimethylbutanamido)-4-methyl-N-((S)-3-oxo-1-((S)-2-oxopyrrolidin-3-yl)-4-(trifluoromethoxy)butan-2-yl)pentanamide]: the EC50 lay within 0.05 to 0.2 µM.

With `CC(C)(C)[C@@H](O)C(=O)N1CC2(CC2)C[C@H]1C(=O)N[C@@H](C[C@@H]1CCNC1=O)C(=O)COC(F)(F)F` [Compound 342, (S)-5-((R)-2-hydroxy-3,3-dimethylbutanoyl)-N-((S)-3-oxo-1-((S)-2-oxopyrrolidin-3-yl)-4-(trifluoromethoxy)butan-2-yl)-5-azaspiro[2.4]heptane-6-carboxamide], the EC50 is 0.05 to 0.2 µM.

Regarding `CC(C)(C)[C@@H](O)C(=O)N1C[C@H]2[C@@H]([C@H]1C(=O)N[C@@H](C[C@@H]1CCNC1=O)C(=O)COC(F)(F)F)C2(C)C` [Compound 343, (1R,2S,5S)-3-((R)-2-hydroxy-3,3-dimethylbutanoyl)-6,6-dimethyl-N-((S)-3-oxo-1-((S)-2-oxopyrrolidin-3-yl)-4-(trifluoromethoxy)butan-2-yl)-3-azabicyclo[3.1.0]-hexane-2-carboxamide], the EC50 lay in the range of 0.05 to 0.2 µM.

On to `CC(C)(C)[C@H](O)C(=O)N1CC2(CC2)C[C@H]1C(=O)N[C@@H](C[C@@H]1CCNC1=O)C(=O)COC(F)(F)F` [Compound 344, (S)-5-((S)-2-hydroxy-3,3-dimethylbutanoyl)-N-((S)-3-oxo-1-((S)-2-oxopyrrolidin-3-yl)-4-(trifluoromethoxy)butan-2-yl)-5-azaspiro[2.4]heptane-6-carboxamide], for which the EC50 was < 0.05 µM.

Consider `CC(C)(C)[C@H](O)C(=O)N1C[C@H]2[C@@H]([C@H]1C(=O)N[C@@H](C[C@@H]1CCNC1=O)C(=O)COC(F)(F)F)C2(C)C` [Compound 345, (1R,2S,5S)-3-((S)-2-hydroxy-3,3-dimethylbutanoyl)-6,6-dimethyl-N-((S)-3-oxo-1-((S)-2-oxopyrrolidin-3-yl)-4-(trifluoromethoxy)butan-2-yl)-3-azabicyclo-[3.1.0]hexane-2-carboxamide], for which the EC50 is < 0.05 µM.

Take `CC(C)(C)CC(O)C(=O)N1CC2(CC2)C[C@H]1C(=O)N[C@@H](C[C@@H]1CCNC1=O)C(=O)COC(F)(F)F` (stereo partly drawn) [Compound 346, (6S)-5-(2-hydroxy-4,4-dimethylpentanoyl)-N-((S)-3-oxo-1-((S)-2-oxopyrrolidin-3-yl)-4-(trifluoromethoxy)butan-2-yl)-5-azaspiro[2.4]heptane-6-carboxamide]: the EC50 was < 0.05 µM.

With `CC(C)(C)CC(O)C(=O)N1C[C@H]2[C@@H]([C@H]1C(=O)N[C@@H](C[C@@H]1CCNC1=O)C(=O)COC(F)(F)F)C2(C)C` (stereo partly drawn) [Compound 347, (1R,2S,5S)-3-(2-hydroxy-4,4-dimethylpentanoyl)-6,6-dimethyl-N-((S)-3-oxo-1-((S)-2-oxopyrrolidin-3-yl)-4-(trifluoromethoxy)butan-2-yl)-3-azabicyclo-[3.1.0]hexane-2-carboxamide], the EC50 was < 0.05 µM.

With `CC(C)(C)CC(O)C(=O)N1C[C@@H]2CCC[C@@H]2[C@H]1C(=O)N[C@@H](C[C@@H]1CCNC1=O)C(=O)COC(F)(F)F` (stereo partly drawn) [Compound 348, (1S,3aR,6aS)-2-(2-hydroxy-4,4-dimethylpentanoyl)-N-((S)-3-oxo-1-((S)-2-oxopyrrolidin-3-yl)-4-(trifluoromethoxy)butan-2-yl)octahydrocyclo-penta[c]pyrrole-1-carboxamide], the EC50 is < 0.05 µM.

For the compound `CC(C)(C)C[C@H](O)C(=O)N1CC2(CC2)C[C@H]1C(=O)N[C@@H](C[C@@H]1CCNC1=O)C(=O)COC(F)(F)F` [Compound 349, (S)-5-((S)-2-hydroxy-4,4-dimethylpentanoyl)-N-((S)-3-oxo-1-((S)-2-oxopyrrolidin-3-yl)-4-(trifluoromethoxy)butan-2-yl)-5-azaspiro[2.4]heptane-6-carboxamide], the EC50 is < 0.05 µM.

As to `CC(C)(F)C[C@H](O)C(=O)N1CC2(CC2)C[C@H]1C(=O)N[C@@H](C[C@@H]1CCNC1=O)C(=O)COC(F)(F)F` [Compound 350, (S)-5-((S)-4-fluoro-2-hydroxy-4-methylpentanoyl)-N-((S)-3-oxo-1-((S)-2-oxopyrrolidin-3-yl)-4-(trifluoromethoxy)butan-2-yl)-5-azaspiro[2.4]-heptane-6-carboxamide], the half-maximal effective concentration (EC50) is 0.05 to 0.2 µM.

In the case of `CC(C)(O)C(=O)N1C[C@H]2[C@@H]([C@H]1C(=O)N[C@@H](C[C@@H]1CCNC1=O)C(=O)COC(F)(F)F)C2(C)C` [Compound 351, (1R,2S,5S)-3-(2-hydroxy-2-methylpropanoyl)-6,6-dimethyl-N-((S)-3-oxo-1-((S)-2-oxopyrrolidin-3-yl)-4-(trifluoromethoxy)butan-2-yl)-3-azabicyclo-[3.1.0]hexane-2-carboxamide], the EC50 fell in the range of 0.05 to 0.2 µM.

For the compound `CC(C)(O)C(=O)N1C[C@@H]2CCC[C@@H]2[C@H]1C(=O)N[C@@H](C[C@@H]1CCNC1=O)C(=O)COC(F)(F)F` [Compound 352, (1S,3aR,6aS)-2-(2-hydroxy-2-methylpropanoyl)-N-((S)-3-oxo-1-((S)-2-oxopyrrolidin-3-yl)-4-(trifluoromethoxy)butan-2-yl)octahydrocyclo-penta[c]pyrrole-1-carboxamide], the EC50 was in the range of 0.05 to 0.2 µM.

In the case of `CC(C)C[C@H](NC(=O)C(C)(C)O)C(=O)N[C@@H](C[C@@H]1CCNC1=O)C(=O)COC(F)(F)F` [Compound 353, (S)-2-(2-hydroxy-2-methylpropanamido)-4-methyl-N-((S)-3-oxo-1-((S)-2-oxopyrrolidin-3-yl)-4-(trifluoromethoxy)butan-2-yl)pentanamide], the EC50 was 0.05 to 0.2 µM.

`CC(C)(O)C(=O)N1CC2(CC2)C[C@H]1C(=O)N[C@@H](C[C@@H]1CCNC1=O)C(=O)COC(F)(F)F` [Compound 354, (S)-5-(2-hydroxy-2-methylpropanoyl)-N-((S)-3-oxo-1-((S)-2-oxopyrrolidin-3-yl)-4-(trifluoromethoxy)butan-2-yl)-5-azaspiro[2.4]-heptane-6-carboxamide]: the EC50 fell in the range of 0.05 to 0.2 µM.

The experiment is the same for the next values; noted with them: Severe acute respiratory syndrome coronavirus 2, HeLa-ACE2, 24 h; read-out: EC50, uM (Hela).
For the compound `CCNC(=O)O[C@@H](C(=O)N1CC2(CC2)C[C@H]1C(=O)N[C@@H](C[C@@H]1CCNC1=O)C(=O)COC(F)(F)F)C(C)(C)C` [Compound 332, (R)-3,3-dimethyl-1-oxo-l-((S)-6-(((S)-3-oxo-1-((S)-2-oxopyrrolidin-3-yl)-4-(trifluoromethoxy)butan-2-yl)carbamoyl)-5-azaspiro[2.4]heptan-5-yl)butan-2-yl ethylcarbamate], the EC50 is 0.5 to 1 µM.

Source of the values: patent US11708348B2, “Protease inhibitors for treatment of coronavirus infections” (The Scripps Research Institute, priority 2021, dated 2023).
